Laboratory results from patent publication US10799478B2, “Treatment of androgen deprivation therapy associated symptoms” (priority 2014, dated 2020).
Read-outs that look alike come from different tables or passages of the source.

Legend:
[1] = system: male rats; assay: Male Fertility and Toxicokinetic Study in Rats; type: in vivo, rat
Protocol: The purpose of this study is to determine the potential adverse effects in the reproductive process resulting from treatment of male rats prior to, and during, the mating period. This includes identification of functional reproductive effects in the male.
Male rats (20/group) are treated daily for 10 weeks prior to mating, throughout the 3-week mating period, and continuing through the day prior to euthanasia (for a total of 100 to 101 doses). Female rats are not treated. All animals are observed twice daily for moribundity and mortality. Clinical observations are recorded daily for male rats; body weights and food consumption are recorded for males twice weekly. All males are euthanized 1 day following the last dose administration. Spermatogenic endpoint evaluations conducted on all males include motility and morphology and epididymal sperm concentration. Testes, epididymis, prostate and seminal vesicle/coagulating gland/fluid from all males are weighed and retained. Testes, epididymis, prostate, seminal vesicles and coagulating glands from surviving males are examined microscopically. A laparohysterectomy is performed on Gestation Day 15 for each female with evidence of mating. An additional 3, 18, 18, and 18 males assigned to the toxicokinetic phase are given the compound at doses of 0, 3, 30, and 1000 mg/kg, respectively, and are sampled for toxicokinetic evaluation at appropriate intervals following dose administration on Study Days 0 and 70.

[2] = system: healthy human volunteers; assay: Phase Ia Study in Healthy Volunteers; type: in vivo; settings: for Change from Baseline for Lean Muscle, Comparison to Placebo Difference / Change from Baseline for Lean Muscle, LS Mean: Day 28
[3] = system: beagle dogs; assay: 52 Week Toxicity and Toxicokinetic Study in Dogs; type: in vivo, dog
Protocol: (§1) Male and female purebred beagle dogs are assigned to groups, and doses are administered according to Table 9 via oral capsules containing 1 ml/kg of 0 [1% (w/v) carboxymethylcellulose sodium (low viscosity/25-50 cps), 0.5% (w/v) sodium lauryl sulfate and 0.05% (v/v) Dow Corning® Antifoam 1510-US in reverse osmosis water] […] All animals receive the same number of capsules, and Group 1 animals receive capsules containing vehicle control article only. Three animals per sex from Groups 1 and 4 are designated as recovery animals.
(§2) Assessment of toxicity is based on mortality, clinical signs, body weight and body weight change, food consumption, ophthalmic and neurologic evaluations, ECG measurements, hormone analysis (testosterone, progesterone, luteinizing hormone, and follicle stimulating hormone), semen evaluation (ejaculate volume and sperm number, density, morphology, and motility), and clinical and anatomic pathology. Blood samples are collected for exploratory metabolite analysis and toxicokinetic evaluations.

[4] = 52 Week Toxicity and Toxicokinetic Study in Dogs; type: in vivo, dog; settings: beagle, dog, in vivo; for Cmax / AUC(0-t): po
Protocol: as §1, §2

[5] = system: healthy human volunteers; assay: Phase Ib Study of Healthy Volunteers; type: in vivo; settings: males
[6] = Allometric prediction of human clearance, bioavailability and dose

For `CC(C)OC(=O)N[C@H]1Cc2c(n(Cc3ccccn3)c3ccc(C#N)cc23)C1` (single isomer, unassigned) [Example 1], the “mating, fertility, and copulation indices” value ([1]; 1000 mg/kg group males) was “lower”, the “increase of mean exposure (AUC0-24 hr) between 3 and 30 mg/kg” value ([1]; Day 0) was “approximately 7.8 fold” and the “increase of mean exposure (AUC0-24 hr) between 3 and 30 mg/kg” value ([1]; Day 70) was about 4.5 fold. For the same compound, the “Mean body weights, body weight gains, and food consumption” value ([1]; all dosage levels) was “unaffected”, the “Intrauterine survival of the embryos” value ([1]; males dosed 3, 30, 1000 mg/kg) was “unaffected” and the “changes from baseline in prostate-specific antigen levels compared with placebo” value ([2]; any time point or any dose) was “no significant changes”. For the same compound, the “Change from Baseline for Lean Muscle, Comparison to Placebo Difference” value ([2]; females, 5 mg) was 2298.22 g, the “Change from Baseline for Lean Muscle, LS Mean” value ([2]; females, 5 mg) was 1555.95 g and the “Change from Baseline for Lean Muscle, Comparison to Placebo Difference” value ([2]; females, 15 mg) was 3661.85 g. For the same compound, the “Change from Baseline for Lean Muscle, LS Mean” value ([2]; females, 15 mg) was 2919.58 g, the “Change from Baseline for Lean Muscle, Comparison to Placebo Difference” value ([2]; females, 25 mg) was 2224.51 g and the “Change from Baseline for Lean Muscle, LS Mean” value ([2]; females, 25 mg) was 1482.24 g. For the same compound, the “Change from Baseline for Lean Muscle, Comparison to Placebo Difference” value ([2]; females, 75 mg) was 2325.92 g, the “Change from Baseline for Lean Muscle, LS Mean” value ([2]; females, 75 mg) was 1583.65 g and the “Change from Baseline for Lean Muscle, Comparison to Placebo Difference” value ([2]; males, 1 mg) was 1548.97 g. The “Change from Baseline for Lean Muscle, LS Mean” value ([2]; males, 1 mg) was 675.52 g, the “Change from Baseline for Prostate Specific Antigen, Comparison to Placebo Difference” value ([2]; males, 1 mg, day 14) was -0.10 µg/L and the “Change from Baseline for Prostate Specific Antigen, LS Mean” value ([2]; males, 1 mg, day 14) was -0.06 µg/L. The “Change from Baseline for Prostate Specific Antigen, Comparison to Placebo Difference” value ([2]; males, 1 mg, day 28) was -0.09 µg/L, the “Change from Baseline for Prostate Specific Antigen, LS Mean” value ([2]; males, 1 mg, day 28) was -0.05 µg/L and the “Change from Baseline for Prostate Specific Antigen, Comparison to Placebo Difference” value ([2]; males, 1 mg, day 35) was -0.01 µg/L. For the same compound, the “Change from Baseline for Prostate Specific Antigen, LS Mean” value ([2]; males, 1 mg, day 35) was 0.02 µg/L, the “Change from Baseline for Lean Muscle, Comparison to Placebo Difference” value ([2]; males, 5 mg) was 1461.11 g and the “Change from Baseline for Lean Muscle, LS Mean” value ([2]; males, 5 mg) was 587.66 g. The “Change from Baseline for Prostate Specific Antigen, Comparison to Placebo Difference” value ([2]; males, 5 mg, day 14) was 0.16 µg/L, the “Change from Baseline for Prostate Specific Antigen, LS Mean” value ([2]; males, 5 mg, day 14) was 0.20 µg/L and the “Change from Baseline for Prostate Specific Antigen, Comparison to Placebo Difference” value ([2]; males, 5 mg, day 28) was -0.05 µg/L. The “Change from Baseline for Prostate Specific Antigen, LS Mean” value ([2]; males, 5 mg, day 28) was -0.00 µg/L, the “Change from Baseline for Prostate Specific Antigen, Comparison to Placebo Difference” value ([2]; males, 5 mg, day 35) was 0.17 µg/L and the “Change from Baseline for Prostate Specific Antigen, LS Mean” value ([2]; males, 5 mg, day 35) was 0.20 µg/L. For the same compound, the “Change from Baseline for Lean Muscle, Comparison to Placebo Difference” value ([2]; males, 15 mg) was 3202.54 g, the “Change from Baseline for Lean Muscle, LS Mean” value ([2]; males, 15 mg) was 2329.08 g and the “Change from Baseline for Prostate Specific Antigen, Comparison to Placebo Difference” value ([2]; males, 15 mg, day 14) was -0.16 µg/L. The “Change from Baseline for Prostate Specific Antigen, LS Mean” value ([2]; males, 15 mg, day 14) was -0.11 µg/L, the “Change from Baseline for Prostate Specific Antigen, Comparison to Placebo Difference” value ([2]; males, 15 mg, day 28) was -0.31 µg/L and the “Change from Baseline for Prostate Specific Antigen, LS Mean” value ([2]; males, 15 mg, day 28) was -0.27 µg/L. The “Change from Baseline for Prostate Specific Antigen, Comparison to Placebo Difference” value ([2]; males, 15 mg, day 35) was 0.22 µg/L, the “Change from Baseline for Prostate Specific Antigen, LS Mean” value ([2]; males, 15 mg, day 35) was 0.25 µg/L and the “Change from Baseline for Lean Muscle, Comparison to Placebo Difference” value ([2]; males, 25 mg) was 1829.63 g. For the same compound, the “Change from Baseline for Lean Muscle, LS Mean” value ([2]; males, 25 mg) was 956.18 g, the “Change from Baseline for Prostate Specific Antigen, Comparison to Placebo Difference” value ([2]; males, 25 mg, day 14) was -0.19 µg/L and the “Change from Baseline for Prostate Specific Antigen, LS Mean” value ([2]; males, 25 mg, day 14) was -0.15 µg/L. The “Change from Baseline for Prostate Specific Antigen, Comparison to Placebo Difference” value ([2]; males, 25 mg, day 28) was -0.27 µg/L, the “Change from Baseline for Prostate Specific Antigen, LS Mean” value ([2]; males, 25 mg, day 28) was -0.22 µg/L and the “Change from Baseline for Prostate Specific Antigen, Comparison to Placebo Difference” value ([2]; males, 25 mg, day 35) was -0.17 µg/L. The “Change from Baseline for Prostate Specific Antigen, LS Mean” value ([2]; males, 25 mg, day 35) was -0.14 µg/L, the “Change from Baseline for Lean Muscle, Comparison to Placebo Difference” value ([2]; males, 75 mg) was -683.76 g and the “Change from Baseline for Lean Muscle, LS Mean” value ([2]; males, 75 mg) was -1557.21 g. For the same compound, the “Change from Baseline for Prostate Specific Antigen, Comparison to Placebo Difference” value ([2]; males, 75 mg, day 14) was -0.17 µg/L, the “Change from Baseline for Prostate Specific Antigen, LS Mean” value ([2]; males, 75 mg, day 14) was -0.13 µg/L and the “Change from Baseline for Prostate Specific Antigen, Comparison to Placebo Difference” value ([2]; males, 75 mg, day 28) was 0.03 µg/L. For the same compound, the “Change from Baseline for Prostate Specific Antigen, LS Mean” value ([2]; males, 75 mg, day 28) was 0.07 µg/L, the “Change from Baseline for Prostate Specific Antigen, Comparison to Placebo Difference” value ([2]; males, 75 mg, day 35) was 0.00 µg/L and the “Change from Baseline for Prostate Specific Antigen, LS Mean” value ([2]; males, 75 mg, day 35) was 0.03 µg/L. For the same compound, the “survival until the scheduled sacrifice” value ([3]; 3, 10, 100 mg/kg) was “All animals survived”, the “Accumulation after multiple dosing” value ([3]; dogs, 3 to 100 mg/kg) was “observed” and the NOAEL at 52 weeks ([4]; both sexes, oral, daily capsule, 52 weeks) was 100 mg/kg. It also gave a Cmax ([4]; female, females, 100 mg/kg, after 361 days of dosing) of 1880 ng/mL, an AUC(0-t) ([4]; female, females, 100 mg/kg, after 361 days of dosing, read-out: AUC0-24 h) of 31500 ng·h/mL and an AUC(0-t) ([4]; male, dogs, 12 months, 3 mg/kg/day, read-out: Male group mean AUC0-24 hr near termination) of 3620 ng·h/mL. The Cmax ([4]; male, males, 100 mg/kg, after 361 days of dosing) was 1500 ng/mL, the “Change from Baseline for P1NP, Comparison to Placebo Difference” value ([5]; 1 mg, day 14) was -2.40 µg/L and the “Change from Baseline for Procollagen Type I N Propeptide (P1NP), LS Mean” value (from here on “Change from Baseline … (P1NP), LS Mean”) ([5]; 1 mg, day 14) was -3.55 µg/L. For the same compound, the “Change from Baseline for P1NP, Comparison to Placebo Difference” value ([5]; 1 mg, day 28) was 1.49 µg/L, the “Change from Baseline … (P1NP), LS Mean” value ([5]; 1 mg, day 28) was 0.16 µg/L and the “Change from Baseline for P1NP, Comparison to Placebo Difference” value ([5]; 1 mg, day 35) was -2.26 µg/L. The “Change from Baseline … (P1NP), LS Mean” value ([5]; 1 mg, day 35) was -5.70 µg/L, the “Change from Baseline for P1NP, Comparison to Placebo Difference” value ([5]; 5 mg, day 14) was 3.27 µg/L and the “Change from Baseline … (P1NP), LS Mean” value ([5]; 5 mg, day 14) was 2.11 µg/L. The “Change from Baseline for P1NP, Comparison to Placebo Difference” value ([5]; 5 mg, day 28) was 4.20 µg/L, the “Change from Baseline … (P1NP), LS Mean” value ([5]; 5 mg, day 28) was 2.88 µg/L and the “Change from Baseline for P1NP, Comparison to Placebo Difference” value ([5]; 5 mg, day 35) was 1.13 µg/L. The “Change from Baseline … (P1NP), LS Mean” value ([5]; 5 mg, day 35) was -2.31 µg/L, the “Change from Baseline for P1NP, Comparison to Placebo Difference” value ([5]; 15 mg, day 14) was 2.49 µg/L and the “Change from Baseline … (P1NP), LS Mean” value ([5]; 15 mg, day 14) was 1.34 µg/L. The “Change from Baseline for P1NP, Comparison to Placebo Difference” value ([5]; 15 mg, day 28) was 3.41 µg/L, the “Change from Baseline … (P1NP), LS Mean” value ([5]; 15 mg, day 28) was 2.09 µg/L and the “Change from Baseline for P1NP, Comparison to Placebo Difference” value ([5]; 15 mg, day 35) was 0.03 µg/L. The “Change from Baseline … (P1NP), LS Mean” value ([5]; 15 mg, day 35) was -3.41 µg/L, the “Change from Baseline for P1NP, Comparison to Placebo Difference” value ([5]; 25 mg, day 14) was -0.92 µg/L and the “Change from Baseline … (P1NP), LS Mean” value ([5]; 25 mg, day 14) was -2.07 µg/L. The “Change from Baseline for P1NP, Comparison to Placebo Difference” value ([5]; 25 mg, day 28) was 2.75 µg/L, the “Change from Baseline … (P1NP), LS Mean” value ([5]; 25 mg, day 28) was 1.43 µg/L and the “Change from Baseline for P1NP, Comparison to Placebo Difference” value ([5]; 25 mg, day 35) was 0.47 µg/L. For the same compound, the “Change from Baseline … (P1NP), LS Mean” value ([5]; 25 mg, day 35) was -2.97 µg/L, the “Change from Baseline for P1NP, Comparison to Placebo Difference” value ([5]; 75 mg, day 14) was -3.81 µg/L and the “Change from Baseline … (P1NP), LS Mean” value ([5]; 75 mg, day 14) was -4.96 µg/L. The “Change from Baseline for P1NP, Comparison to Placebo Difference” value ([5]; 75 mg, day 28) was 2.81 µg/L, the “Change from Baseline … (P1NP), LS Mean” value ([5]; 75 mg, day 28) was 1.48 µg/L and the “Change from Baseline for P1NP, Comparison to Placebo Difference” value ([5]; 75 mg, day 35) was 2.35 µg/L. The “Change from Baseline … (P1NP), LS Mean” value ([5]; 75 mg, day 35) was -1.09 µg/L, the predicted human bioavailability [6] was 49% and the “allometrically predicted human clearance” value ([6]; 90% CI 24 to 46) was 33 Uh.
